Tests used:
[1] = target: T1, CCR1 (Homo sapiens, UniProt P32246); test: Method B: calcium flux in CCR1 transfected cells (Calcium 4 dye, […] FDSS6000), block of the CCR1/MIP-1α interaction; assay type: cell-based; settings: Method B: Calcium 4 dye, MIP-1alpha at EC80
T1 sequence (P32246 1-355): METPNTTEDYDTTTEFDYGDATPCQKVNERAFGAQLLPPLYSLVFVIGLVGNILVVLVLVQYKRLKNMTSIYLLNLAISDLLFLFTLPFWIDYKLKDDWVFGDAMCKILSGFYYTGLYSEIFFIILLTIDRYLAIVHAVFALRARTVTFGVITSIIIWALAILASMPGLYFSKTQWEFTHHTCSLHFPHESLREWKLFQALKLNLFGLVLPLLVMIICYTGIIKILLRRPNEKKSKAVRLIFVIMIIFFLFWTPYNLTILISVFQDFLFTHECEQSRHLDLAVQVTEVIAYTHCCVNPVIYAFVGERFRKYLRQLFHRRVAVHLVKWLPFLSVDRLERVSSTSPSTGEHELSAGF
How it was run: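 Calcium flux on an FDSS6000 was triggered by MIP-1α at its EC80 in stably CCR1/G-alpha-16-expressing non-adherent cells. Before this, Calcium 4-loaded cells were preincubated with compound in HBSS, 20 mM HEPES pH 7.4, 1% DMSO: 30 min at 37 C plus 30 min at room temperature. Ten 4-fold doses began at 3,000 nM, with ±MIP-1α DMSO wells as controls.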

[2] = target: T1, CCR1; test: Method A: calcium flux in CCR1 transfected cells (Fluo-4 NW, FLIPR TETRA), block of the CCR1/MIP-1α interaction; assay type: cell-based; settings: Method A: Fluo-4 NW, MIP-1 alpha at EC80
How it was run: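 Non-adherent cells stably expressing recombinant CCR1 and G-alpha-16, Fluo-4 NW-loaded 1 h at room temperature, preincubated 1 h with compound (top 3,000 nM, 4-fold, 10 doses; 1% DMSO) in HBSS/20 mM HEPES pH 7.4. MIP-1 alpha added at EC80; intracellular calcium flux recorded on FLIPR TETRA.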

## C[C@H](NC(=O)c1cncc2c1cnn2-c1ccc(F)cc1)c1cncc(S(N)(=O)=O)c1 [1-(4-Fluorophenyl)-1H-pyrazolo[3,4-c]pyridine-4-carboxylic acid [(S)-1-(5-sulfamoyl-pyridin-3-yl)-ethyl]-amide]
[1]
  IC50: 0.9 nM
[2]
  IC50: 2 nM

## C[C@H](NC(=O)c1cncc2c1cnn2-c1ccc(F)cc1)c1ccc(S(C)(=O)=O)nc1 [1-(4-Fluorophenyl)-1H-pyrazolo[3,4-c]pyridine-4-carboxylic acid [(S)-1-(6-methanesulfonyl-pyridin-3-yl)-ethyl]-amide]
[1]
  IC50: 3 nM
[2]
  IC50: 9 nM

## CC[C@H](NC(=O)c1cncc2c1cnn2-c1ccc(F)cc1)c1cncc(S(=O)(=O)CCC(=O)O)c1 [3-[5-((S)-1-{[1-(4-Fluorophenyl)-1H-pyrazolo[3,4-c]pyridine-4-carbonyl]-amino}-propyl)-pyridine-3-sulfonyl]-propionic acid]
[1]
  IC50: 14 nM
[2]
  IC50: 35 nM

Reference: patent US8063065B2, “Azaindazole compounds as CCR1 receptor antagonists” (Boehringer Ingelheim International GmbH, priority 2008, dated 2011)
